Data on three compounds can be found in US12544395B2, “Combination compositions comprising a beta-lactamase inhibitor and uses thereof” (priority 2018, dated 2026).

The test system of series [1] is AmpC/CMY-expressing Enterobacteriaceae (n = 44). In words: Broth microdilution MIC, ceftibuten/Compound 2 vs IV comparators. Type of series: cell-based.
The subject of series [2] is OXA-48-expressing Enterobacteriaceae (n = 39). The description is as above.
The subject of series [3] is K. pneumoniae UNT-023 (KPC-2). The series is described as follows: MIC vs. septicemia model strain. The class given is cell-based. The settings on record: Klebsiella pneumoniae, read-out: MIC vs. K. pneumoniae UNT-023 (KPC-2).
The test system of series [4] is ceftibuten-resistant Enterobacteriaceae expressing ESBL (n=20). In words: Checkerboard broth microdilution MIC, BLI concentration impact. The settings on record: for MIC50: read-out: CTB MIC50; for MIC90: read-out: CTB MIC90. The class given is cell-based. On the procedure: (§1) Minimum inhibitory concentrations (MICs) were determined by broth microdilution method following CLSI guidelines. Tested strains were ceftibuten-resistant Enterobacteriaceae expressing ESBL (n=20), KPC (n=20), OXA-48 (n=20) and/or Class C (n=20) beta-lactamases. For each isolate, one microtiter plate was prepared and formatted as a checkerboard with the BLI (Compound 2 or clavulanic acid) titrated down the plate and ceftibuten titrated across the plate. Each agent was also tested alone. MICs were determined as the well with the lowest concentration of ceftibuten without visible growth at each concentration of BLI.
A general note: Dilution methods test growth across graded concentrations, often in twofold steps.

The subject of series [5] is ceftibuten-resistant Enterobacteriaceae expressing OXA-48 (n=20). The description is as above. The class given is cell-based. To be noted: for MIC50: read-out: CTB MIC50; for MIC90: read-out: CTB MIC90. Here is the method: as §1
Series [6] concerns ceftibuten-resistant Enterobacteriaceae expressing Class C (n=20). The description is as above. The class given is cell-based. The settings on record: for MIC50: read-out: CTB MIC50; for MIC90: read-out: CTB MIC90. Here is the method:
as §1

The subject of series [7] is ceftibuten-resistant Enterobacteriaceae, All isolates. The description is as above. Type of series: cell-based. To be noted: for MIC50: read-out: CTB MIC50; for MIC90: read-out: CTB MIC90. On the procedure:
as §1

The next series deals with T1, NDM-1 (Klebsiella pneumoniae, UniProt C7C422).
T1 construct: expressed as native untagged proteins; made in house; host or cells: E. coli BL21(DE3)
T1 sequence (C7C422 29-270 limits assumed): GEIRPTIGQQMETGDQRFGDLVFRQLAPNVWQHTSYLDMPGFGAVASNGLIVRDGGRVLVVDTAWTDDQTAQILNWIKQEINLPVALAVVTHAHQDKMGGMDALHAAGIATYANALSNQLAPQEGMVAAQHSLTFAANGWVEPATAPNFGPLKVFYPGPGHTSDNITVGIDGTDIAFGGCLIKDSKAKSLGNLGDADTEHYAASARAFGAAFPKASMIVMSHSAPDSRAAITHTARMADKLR
The series is described as follows: Beta-lactamase enzyme inhibition (IC50). The class given is biochemical.

A further series addresses T2, IMP-1 (Serratia marcescens, UniProt P52699).
T2 construct: expressed as native untagged proteins; made in house; host or cells: E. coli BL21(DE3)
The series is described as follows: Beta-lactamase enzyme inhibition (IC50). The class given is biochemical.

Series [8] can be described thus: Single dose plasma pharmacokinetics (fasted and non-fasted). Type of series: in vivo, Beagle dogs. To be noted: male, Beagle, dog, iv, 5 mg/kg.
Series [9] can be described thus: Metabolic stability in intestinal S9. Type of series: in vitro ADME, Sprague-Dawley rat. The settings on record: Sprague-Dawley, intestinal S9; Rat; test conc. 3 μM.
Series [10] is described as follows: Single ascending dose pharmacokinetics, Solutol HS-15:Water (10:90). Type of series: in vivo, Beagle dogs. To be noted: beagle, dog, plasma, iv, 10 mg/kg.
Protocol: The dosing formulation for Compound 1 was prepared in Solutol HS-15:Water (10:90 v/v) which provided dosing formulations of Compound 1 as a solution (homogeneous and chemically-stable up to a concentration of 30 mg/mL) and as a emulsion (physically- and chemically-stable at concentrations ranging from 31-100 mg/mL) with dose concentrations ranging from 2-60 mg/mL.
Series [11] in a line: Metabolic stability in plasma. Type of series: in vitro ADME. The settings on record: plasma; Human; test conc. 3 μM.
A further series addresses T3, SHV-5 (Klebsiella pneumoniae, UniProt P0A3M1).
T3 construct: expressed as native untagged proteins; made in house; host or cells: E. coli BL21(DE3)
The series is described as follows: Beta-lactamase enzyme inhibition (IC50). The class given is biochemical.

Series [12] in a line: Metabolic stability in plasma. Type of series: in vitro ADME, CD-1 mouse. To be noted: CD-1, plasma; Mouse; test conc. 3 μM.
Another series deals with T4, VIM-2 (Escherichia coli, UniProt Q5U7L7).
T4 construct: expressed as native untagged proteins; made in house; host or cells: E. coli BL21(DE3)
The series is described as follows: Beta-lactamase enzyme inhibition (IC50). Type of series: biochemical. Here is the method: For VIM-2 metallo beta-lactamase, the procedure was identical with the following exceptions, first the protein was not pH adjusted to pH 5 with 50 mM sodium acetate, second, the chromatography step was changed to a 5 ml Q sepharose anion exchange column pre-equilibrated with 50 mM Hepes pH 7.5, and elution of the protein was achieved by a linear gradient of NaCl (0-600 mM). Finally, the VIM-2 purification required a second run (3rd step) on the Q sepharose anion exchange column to achieve acceptable purity (>90%).

Series [13] can be described thus: Metabolic stability in intestinal S9. Type of series: in vitro ADME, beagle dog. The settings on record: beagle, intestinal S9; Dog; test conc. 3 μM.
The target of the next series is T5, CMY-2 (Klebsiella pneumoniae, UniProt Q48434).
T5 construct: expressed as native untagged proteins; made in house; host or cells: E. coli BL21(DE3)
T5 sequence (Q48434 21-381): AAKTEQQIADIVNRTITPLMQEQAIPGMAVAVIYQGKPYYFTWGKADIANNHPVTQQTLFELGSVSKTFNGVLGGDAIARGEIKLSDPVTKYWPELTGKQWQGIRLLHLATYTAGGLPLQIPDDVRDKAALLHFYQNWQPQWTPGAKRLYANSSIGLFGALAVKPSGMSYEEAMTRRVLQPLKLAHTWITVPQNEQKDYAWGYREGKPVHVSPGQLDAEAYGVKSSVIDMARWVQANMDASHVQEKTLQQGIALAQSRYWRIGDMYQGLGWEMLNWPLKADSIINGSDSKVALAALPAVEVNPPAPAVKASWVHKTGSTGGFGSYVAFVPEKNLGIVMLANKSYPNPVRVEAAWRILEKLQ
The series is described as follows: Beta-lactamase enzyme inhibition (IC50). Type of series: biochemical.

Series [14] in a line: Metabolic stability in intestinal S9. The class given is in vitro ADME. The settings on record: intestinal S9; Human; test conc. 3 μM.
The nature of series [15]: Metabolic stability in plasma. Type of series: in vitro ADME. The settings on record: Sprague-Dawley, Rat, test conc. 3 μM.
Series [16] in a line: Metabolic stability in intestinal S9. Type of series: in vitro ADME, CD-1 mouse. The settings on record: CD-1, intestinal S9; Mouse; test conc. 3 μM.

≈ marks a conversion by molar mass, not a printed value.

T2 sequence (P52699 19-246 limits assumed): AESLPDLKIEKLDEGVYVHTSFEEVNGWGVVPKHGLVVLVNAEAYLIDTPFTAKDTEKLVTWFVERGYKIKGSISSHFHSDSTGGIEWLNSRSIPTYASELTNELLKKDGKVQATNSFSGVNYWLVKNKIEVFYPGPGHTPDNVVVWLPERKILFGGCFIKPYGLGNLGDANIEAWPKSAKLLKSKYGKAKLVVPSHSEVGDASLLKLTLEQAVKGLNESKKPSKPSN
T3 sequence (P0A3M1 22-286): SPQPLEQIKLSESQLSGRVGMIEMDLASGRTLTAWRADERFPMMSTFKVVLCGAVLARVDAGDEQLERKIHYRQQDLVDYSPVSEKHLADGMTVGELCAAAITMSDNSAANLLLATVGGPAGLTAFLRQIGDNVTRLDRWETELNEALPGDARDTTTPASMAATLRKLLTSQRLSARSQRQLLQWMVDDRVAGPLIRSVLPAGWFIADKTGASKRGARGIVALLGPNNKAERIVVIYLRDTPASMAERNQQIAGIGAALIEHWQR
Protocol for CMY-2: (§2) E. coli BL21(DE3) bacterial cells carrying expression plasmids for the individual beta-lactamases (SHV-5, KPC-2, p99AmpC, CTX-M-15, CMY-2, IMP-1, NDM-1, VIM-2, OXA-1, and OXA 48; expressed as native untagged proteins), were grown in 1 L of Superbroth (Teknova Inc. Hollister, CA) supplemented with 100 μg/mL kanamycin selection and 1×5052 (0.5% glycerol, 0.05% glucose and 0.2% α-lactose) at 35° C. for 18-20 hours. Cells were harvested by centrifugation (4,000×g, 4° C., 20 min) and resuspended in 50 mL of 10 mM HEPES pH 7.5 ( 1/20 of the initial volume). The cells were lysed by sonication (5 pulses of 45 seconds) at 45 W on ice. The lysates were clarified by centrifugation at 10,000×g for 40 minutes at 4° C. […] Active fractions were pooled, concentrated, quantitated by BCA protein determination (Thermo Scientific, Rockford, IL), dialyzed into PBS and frozen at −80° C. in 20% glycerol until use.
(§3) An equal volume of diluted enzyme stock was added, and the plates were incubated at 37° C. for 15 min. […] Absorbance at 486 nm was immediately monitored for 10 min using a Biotek Powerwave XS2 microplate spectrophotometer using the GEN5 software package (Biotek Instruments, Winooski VT). […] Maximum rates of hydrolysis were compared to those in control wells (without inhibitors), and percentages of enzyme inhibition were calculated for each concentration of inhibitor. […]
Protocol for IMP-1: as §2, §3
Protocol for NDM-1: An equal volume of diluted enzyme stock was added, and the plates were incubated at 37° C. for 15 min. Nitrocefin was used as substrate for p99 AmpC, CMY-2, IMP-1, VIM-2 and OXA-1 and OXA-48, and dispensed into each well at a final concentration of 100 μM. Absorbance at 486 nm was immediately monitored for 10 min using a Biotek Powerwave XS2 microplate spectrophotometer using the GEN5 software package (Biotek Instruments, Winooski VT). […] Maximum rates of hydrolysis were compared to those in control wells (without inhibitors), and percentages of enzyme inhibition were calculated for each concentration of inhibitor. The concentration of inhibitor needed to reduce the initial rate of hydrolysis of substrate by 50% (IC50) was calculated as the residual activity of beta-lactamase at 486 nm using GraFit version 7 kinetics software package (Erithacus Software, Surrey, UK).
Protocol for SHV-5: as §2, §3

On to `Nc1nc(/C(=C/CC(=O)O)C(=O)N[C@@H]2C(=O)N3C(C(=O)O)=CCS[C@H]23)cs1` [Ceftibuten, ceftibuten, reference compound], for which, in [1] (AmpC/CMY-expressing (n = 44)), the “Number of strains at MIC value 0.5 mg/L” value stood at 0, the “Number of strains at MIC value 1 mg/L” value is 1, the “Number of strains at MIC value 2 mg/L” value is given as 5 and the “Number of strains at MIC value 4 mg/L” value stood at 3. Moreover, in [1] (AmpC/CMY-expressing (n = 44)), the “Number of strains at MIC value 8 mg/L” value was determined as 7, the “Number of strains at MIC value 16 mg/L” value amounted to 7, the “Number of strains at MIC value […]” value was found to be 0 and the “Number of strains at MIC value ≤0.06 mg/L” value amounted to 1. For the same compound, the “Number of strains at MIC value ≥32 mg/L” value in series [1] (AmpC/CMY-expressing (n = 44)) is listed as 20. In series [1] (iv), the MIC50 is ≥ 32 µg/mL and the MIC90 was ≥ 32 µg/mL. Besides, in series [2], the MIC50 turned out to be 16 µg/mL (≈ 39 µM) and the MIC90 is ≥ 32 µg/mL. Besides, the minimum inhibitory concentration (MIC) in [3] is > 128 µg/mL.

As to `O=C(O)[C@H]1/C(=C/CO)O[C@@H]2CC(=O)N21` [Clavulanic acid, clavulanic acid, reference compound], the MIC50 was determined as 0.5 µg/mL in series [4], 8 µg/mL in [5], 2 µg/mL in series [6] and 4 µg/mL in series [7]. The MIC90 in series [4] is 2 µg/mL; in [5], > 32 µg/mL; in series [6], > 32 µg/mL; in series [7], 32 µg/mL.

Take `CCC(=O)N[C@H]1Cc2cccc(C(=O)O)c2OB1O` [Compound 2, (R)-2-hydroxy-3-propionamido-3,4-dihydro-2H-benzo[e][1,2]oxaborinine-8-carboxylic acid]: the IC50 against NDM-1 is 38.1 µM; on IMP-1, > 100 µM; on SHV-5, 0.368 µM; at VIM-2, 9.04 µM; at CMY-2, 0.014 µM. Moreover, the AUC(0-inf) in series [8] was 25500 ng·h/mL; in [10], 39300 ng·h/mL. Moreover, the Cmax was found to be 22400 ng/mL in series [8] and 54500 ng/mL in series [10]. For the same compound, the half-life at 3 μM in series [9], in series [11], in series [12], in series [13], in [14] and in [15] was > 2 h in each case. Also, in [16], the half-life at 3 μM was > 2 h. Besides, the MIC50 in series [4] was 0.25 µg/mL; in series [5] it was 0.125 µg/mL; in series [6], 0.25 µg/mL; in series [7] it was 0.25 µg/mL. Also, the MIC90 in series [4] worked out at 0.5 µg/mL; in series [5] it was 0.5 µg/mL; in series [6], 1 µg/mL; in series [7] it was 1 µg/mL.

For orientation: MIC50 means the lowest concentration that inhibits either 50% of growth or 50% of the strains tested, depending on the study. In general, MIC90 refers to the lowest concentration that inhibits either 90% of growth or 90% of the strains tested, depending on the study. One may read the MIC as the lowest concentration found to suppress growth. A word on the IC50: it is the midpoint of a concentration-inhibition curve. Higher therefore signals a need for much substance. Broadly, the AUC(0-inf) is total exposure, with the tail of the curve extrapolated. Read a high AUC(0-inf) as more exposure. The term Cmax denotes the highest concentration seen after dosing. In general, half-life refers to the time in which the quantity being followed falls by half. Read a high half-life as slow loss.
